# According to US10736343B2, “Antimicrobial formulations with pelargonic acid” (ANITOX CORPORATION, priority 2011, dated 2020):
# Where two headings read alike, the source gives them in different places.
# Tests used:
# Salmonella typhimurium [1] = experiment: In vitro test of aldehyde / hexenal / pelargonic acid formulations against Salmonella typhimurium suspension (Example 7); assay type: cell-based; settings: for ability to replace trans-2-hexenal (in words): At both 5% and 10% pelargonic acid
# Description: Seven aldehydes (butyraldehyde, citral, undecylenic aldehyde, decadienal, cinnamaldehyde, decanal and furfural) were blended with trans-2-hexenal, pelargonic acid, propionic acid and acetic acid as presented in Table 9. A 20% (X−1) and a 25% (F18) hexanal: organic acid product were included as positive controls. […] Solutions were vortexed for 10 seconds to uniformly mix the solution. There were three replicate tubes per treatment. […] The solutions were vortexed, incubated at room temperature for 24 hours and then plated on XLT-4 agar for 48 hours before counting Salmonella colonies.
# Salmonella typhimurium [2] = experiment: Residual activity in treated poultry mash feed contaminated after treatment (Example 6); assay type: cell-based; settings: for % Reduction at 13 Days: feed contaminated 13 days post treatment
# Description: Formula 1 from Example 3 composed of 25% trans-2-hexenal, 5% pelargonic acid and 70% aqueous organic acids was compared to trans-2-hexenal for residual activity in feed. Poultry mash feed was treated with 0.1, 0.25, 0.5 or 1.0 kg/ton of hexenal compared to 1 kg/ton of the hexenal: pelargonic acid combination product (0.25 kg/ton of hexenal), At 1, 6 and 13 days post treatment, feed was contaminated with a meat and bone meal inoculum of Salmonella typhimurium at a level of 10^3 cfu/g of feed. After 24 hours, 10 g of subsamples of the untreated and treated feed were suspended in 90 ml Butterfield buffer. Dilutions were plated on XLT-4 agar and incubated at 37° C. for 48 hours before counting Salmonella colonies.
# [3] = tested on: Helicobacter pylori and S. cholerasuis; settings: cited from earlier work
# [4] = tested on: B. cereus, S. typhimurium, V. parahaemolyticus, L. monocytogenes, S. aureus and E. coli O157:H7; settings: cited from earlier work
# P. syringae pathovars = settings: cited from earlier work
# E. coli = settings: cited from earlier work
# Phoma mycelium = settings: cited from earlier work
# Penicillium expansum = settings: cited from earlier work
# [5] = tested on: A. flavus, P. notatum, A. alternate, F. oxysporum, Cladosporium species, B. subtilis and A. tumerfaciens; settings: cited from earlier work
# yeast (10^5 CFU/bottle) = settings: cited from earlier work
# mold = settings: 0.86 or 1.71 mmol per 1.1 L container for 2 weeks; cited from earlier work
# [6] = tested on: apricots, peaches and nectarines; settings: cited from earlier work
# [7] = rat, cited from earlier work
# [8] = rat, in vivo; cited from earlier work
# pears and apples = settings: 12.5 μL/L, twenty four hours to seven days exposure; cited from earlier work
# M. gypseum = settings: cited from earlier work
# [9] = tested on: Salmonella typhimurium (ATCC #14028); experiment: Salmonella typhimurium suspension in test tubes with formaldehyde and/or pelargonic acid, plate count (Example 1); assay type: cell-based
# Description: (§1) Solutions were vortexed for 10 seconds to ensure mixing. There were three replicate tubes per treatment. A suspension of Salmonella typhimurium (10^3 cfu/ml, ATCC #14028) was added to three test tubes containing each formulation. The solutions were vortexed, incubated at room temperature for 24 hours plated on SMA (Standard Methods Agar) for 24 hours before counting Salmonella colonies.
# [10] = tested on: Salmonella typhimurium (ATCC #14028); experiment: Salmonella typhimurium suspension in test tubes with formaldehyde and/or pelargonic acid, plate count (Example 2); assay type: cell-based
# Description: as §1, with “24 hours and plated on” for “24 hours plated on”
# Salmonella typhimurium [11] = experiment: In vitro test of five formulations against Salmonella typhimurium suspension (Example 3); assay type: cell-based; settings: pelargonic acid at 10% of formula
# Description: Formulations were added to test tubes at concentrations of 0.01% and 0.05%. Solutions were vortexed for 10 seconds to ensure mixing. There were three replicate tubes per treatment.
# A suspension of Salmonella typhimurium (10^4 cfu/ml) was added to three test tubes containing the different dilutions of each formulation. The tubes were vortexed, incubated at room temperature for 24 hours and then the solution was plated on SMA (Standard Methods Agar) for 48 hours before counting Salmonella colonies.
# parasite C. irritans = settings: cited from earlier work
# [12] = tested on: Staphylococcus aureus, E. coli and Salmonella typhimurium; settings: cited from earlier work
# [13] = At 5% pelargonic acid, aldehyde by itself
# [14] = At 10% pelargonic acid, 20% aldehyde
# [15] = formaldehyde 0 %, pelargonic acid 0.00125 %
# [16] = formaldehyde 0 %, pelargonic acid 0.0025 %
# [17] = formaldehyde 0.00312 %, pelargonic acid 0 %
# [18] = formaldehyde 0.00625 %, pelargonic acid 0 %
# [19] = formaldehyde 0.0125 %, pelargonic acid 0 %
# [20] = formaldehyde 0.025 %, pelargonic acid 0 %
smiles,measurement,setting,value
CCCC=O [butyraldehyde],effectiveness compared with trans-2-hexenal (in words),Salmonella typhimurium [1]; [13],not as effective as trans-2-hexenal
same,effectiveness compared with trans-2-hexenal (in words),Salmonella typhimurium [1]; [14],as effective as 20% trans-2-hexenal
same,ability to replace trans-2-hexenal (in words),Salmonella typhimurium [1],can partially replace trans-2-hexenal
CCC/C=C/C=O [trans-2-hexenal],% Reduction at 13 Days,Salmonella typhimurium [2]; 0.10 kg/ton hexenal,0%
same,% Reduction at 13 Days,Salmonella typhimurium [2]; 0.25 kg/ton hexenal,0%
same,% Reduction at 13 Days,Salmonella typhimurium [2]; 0.50 kg/ton hexenal,77.4%
same,% Reduction at 13 Days,Salmonella typhimurium [2]; 1.00 kg/ton hexenal,87.1%
same,minimum biocidal activity,[3],800 µg/mL
same,minimum inhibitory activity,[3],400 µg/mL
same,effective concentration,[4],247 mg/L
same,concentration that completely inhibited proliferation,P. syringae pathovars,570 ug/L of air
same,concentration that completely inhibited proliferation,E. coli,930 micrograms/L of air
same,concentration effective at inhibiting growth,Phoma mycelium,250 µg/mL
same,concentration effective on controlling,Penicillium expansum,12.5 μL/L
same,concentration that completely inhibited the growth,[5],8 ng/L air
same,concentration necessary to stabilize beverages,yeast (10^5 CFU/bottle); beverages not thermally treated,35 ppm
same,concentration controlling yeast in beverages,yeast (10^5 CFU/bottle); with thermal treatment (56° C. for 20 min),25 ppm
same,control of mold (in words),mold,showed promise for control of mold
same,phytotoxicity (in words),[6]; apricots,not phytotoxic
same,phytotoxicity (in words),[6]; peaches and nectarines at 40 μL/L,phytotoxic
same,body weight and intake (in words),"[7]; 4000 ppm in diet, 13 wk","reduction in body weight and intake, but it was not significant"
same,hematological parameters or organ weights (in words),"[7]; dietary levels 260, 640, 1600 or 4000 ppm for 13 wk",did not induce any changes in hematological parameters or organ weights
same,toxic levels in rats relative to normal intake by humans,[8],30 times
same,fruit quality (in words),pears and apples,"did not affect fruit appearance, color, firmness, soluble solids content or titratable acidity"
C=CCCCCCCCCC=O [undecylenic aldehyde],ability to replace trans-2-hexenal (in words),Salmonella typhimurium [1],can replace trans-2-hexenal
CCCCCCCCCC(=O)O [capric acid],minimum inhibitory concentration (MIC),M. gypseum; in liquid media,75 mg/L
same,minimum inhibitory concentration (MIC),M. gypseum; on solid media,20 mg/L
"CCCCCCCCC(=O)O [Pelargonic acid, Pelargonic acid (nonanoic acid)]",bactericidal effect (in words),[9]; at the highest dose tested,not bactericidal
same,Salmonella % reduction,"[9]; formaldehyde 0 %, pelargonic acid 0.000312 %",0%
same,Salmonella % reduction,"[9]; formaldehyde 0 %, pelargonic acid 0.000625 %",0%
same,Salmonella % reduction,[9]; [15],0%
same,Salmonella % reduction,[9]; [16],0%
same,effect on the effectiveness of formaldehyde (in words),[9]; pelargonic acid at 0.00125 and 0.0025%,did appear to increase the effectiveness of formaldehyde
same,Salmonella % reduction,[10]; [15],2.1%
same,Salmonella % reduction,[10]; [16],8.8%
same,Salmonella % reduction,"[10]; formaldehyde 0 %, pelargonic acid 0.005 %",96.5%
same,Salmonella % reduction,"[10]; formaldehyde 0 %, pelargonic acid 0.01 %",100%
same,effect on bactericidal efficacy of formaldehyde (in words),[10]; pelargonic acid 0.00125% and 0.0025% mixed with formaldehyde,the bactericidal efficacy of formaldehyde was improved
same,impact on Salmonella reduction (in words),[10]; pelargonic acid alone at 0.00125% and 0.0025%,did not have a significant impact on Salmonella reduction
same,effect on efficacy of trans-2-hexenal (in words),Salmonella typhimurium [11],increases the efficacy of trans-2-hexenal
same,effectiveness against Salmonella versus trans-2-hexenal alone (in words),Salmonella typhimurium [2]; addition of pelargonic acid (5%) to trans-2-hexenal,better effectiveness against Salmonella than trans-2-hexenal by itself
same,potentiation of aldehyde efficacy (in words),Salmonella typhimurium [1],potentiates the efficacy of each individual aldehyde and aldehyde combination
same,minimum inhibitory concentration (MIC),M. gypseum; in liquid media,50 mg/L
same,minimum inhibitory concentration (MIC),M. gypseum; on solid media,40 mg/L
same,control of parasite growth (in words),parasite C. irritans,effective in controlling the growth
CC(C)=CCCC(C)=CC=O [citral],effectiveness compared with trans-2-hexenal (in words),Salmonella typhimurium [1]; [13],not as effective as trans-2-hexenal
same,effectiveness compared with trans-2-hexenal (in words),Salmonella typhimurium [1]; [14],as effective as 20% trans-2-hexenal
same,ability to replace trans-2-hexenal (in words),Salmonella typhimurium [1],can partially replace trans-2-hexenal
same,concentration equivalent to 25 ppm trans-2-hexenal and thermal treatment,yeast (10^5 CFU/bottle),100-120 ppm
O=CC=Cc1ccccc1 [cinnamaldehyde],ability to replace trans-2-hexenal (in words),Salmonella typhimurium [1],can replace trans-2-hexenal
CCCCCCCCCC=O [decanal],ability to replace trans-2-hexenal (in words),Salmonella typhimurium [1],can replace trans-2-hexenal
CC/C=C/CC=O [(3E)-hexenal],level effective in controlling,[12],3 to 30 µg/mL
C=O [Formaldehyde],Salmonella % reduction,[9]; [17],17.3%
same,Salmonella % reduction,[9]; [18],39.3%
same,Salmonella % reduction,[9]; [19],59.0%
same,Salmonella % reduction,[9]; [20],90.8%
same,Salmonella % reduction,[10]; [17],17.7%
same,Salmonella % reduction,[10]; [18],41.0%
same,Salmonella % reduction,[10]; [19],50.5%
same,Salmonella % reduction,[10]; [20],88.3%
O=Cc1ccco1 [furfural],ability to replace trans-2-hexenal (in words),Salmonella typhimurium [1],can replace trans-2-hexenal
"CCCCCC=CC=CC=O [decadienal aldehyde, 2-4-decadienal]",ability to replace trans-2-hexenal (in words),Salmonella typhimurium [1],can replace trans-2-hexenal
